We go through six compounds from patent US20230338362A1 (priority 2020, published 2023).

Series [1] deals with VERO-E6 cells enriched for angiotensin converting enzyme 2 receptor (ACE-2). The series is described as follows: In vitro toxicity, cell viability assay in VERO-E6 cells in the absence of virus. The following applies: Table I, positive controls; absence of SARS-CoV-2 virus.
Another series relates to SARS-CoV-2. The series is described as follows: SARS-CoV-2 inhibition, cell viability assay (CellTiter-Glo) in VERO-E6 cells enriched for ACE-2. Format: cell-based.
In another series the test system is MERS-CoV. Type of series: cell-based.
Another series concerns common cold coronavirus. The series is described as follows: In vitro activity against common cold coronaviruses, methods analogous to Example 1. Format: cell-based.
The subject of the next series is Influenza A. The series is described as follows: In vitro activity against Influenza A, methods analogous to Example 1. Format: cell-based.
Series [2] deals with macrophages treated with SARS-CoV-2 Spike protein. Format: cell-based, human.
For series [3] the test system is unchanged. Format: cell-based, human. This is another data set of the same source.
A further series relates to Influenza B. The series is described as follows: In vitro activity against Influenza B, methods analogous to Example 1. Type of series: cell-based.
In another series the test system is SARS-CoV. Type of series: cell-based.

Like-named read-outs stand apart in the source and are kept apart here. Peptide text beside a SMILES is read from it. * marks the point of attachment. Cbz = O=C(OCc1ccccc1)*; CH2F = FC*

With `CC(C)C[C@H](NC(=O)OCc1ccccc1)C(=O)N[C@@H](CC(C)C)C(=O)N[C@@H](Cc1ccc(O)cc1)C(=O)CF` [Calpain Inhibitor IV, reference compound] (Cbz-Leu-Leu-Tyr-CH2F), the half-maximal cytotoxic concentration (CC50) in series [1] is > 7.17 µM. In addition, in the series with SARS-CoV-2 (Table I, positive controls, VERO-E6 cells enriched for ACE-2 plus SARS-CoV-2, read-out: IC50), the half-maximal inhibitory concentration (IC50) is 0.12 µM.
For `CCOC(=O)[C@H]1O[C@@H]1C(=O)N[C@@H](CC(C)C)C(=O)NCCC(C)C` [E64d (aloxistatin), aloxistatin, reference compound], the cytotoxic concentration (CC50) in series [1] is > 30 µM.
Same read-out and setting: the value for `CCN(CC)CCCC(C)Nc1ccnc2cc(Cl)ccc12` (stereo not drawn) [Chloroquine, chloroquine, reference compound] was > 30 µM.
In the case of `COc1ccc2cc1Oc1ccc(cc1)C[C@H]1c3c(cc4c(c3Oc3cc5c(cc3OC)CCN(C)[C@@H]5C2)OCO4)CCN1C` [Cepharanthine, (14S,27S)-22,33-dimethoxy-13,28-dimethyl-2,5,7,20-tetraoxa-13,28-diazaoctacyclo[25.6.2.2^16,19.1^3,10.1^21,25.0^4,8.0^31,35.0^14,39]nonatri-aconta-1(33),3(39),4(8),9,16(38),17,19(37),21,23,25(36),31,34-dodecaene], the “activity against MERS-CoV” value in the series with MERS-CoV is given as “active”. The “activity against common cold coronavirus” value in the series with common cold coronavirus is “active”. Also, the “activity against Influenza A” value in the series on Influenza A was “active”. Moreover, in series [2], the anti-inflammatory cytokines entry was “inducing anti-inflammatory cytokines such as IL-10”; the “expression of cytokine modulators / anti-inflammatory cytokines” value is given as “activating expression of the anti-inflammatory cytokine IL-10”; the “expression of pro-inflammatory cytokines” value is “inhibited expression of pro-inflammatory cytokines VEGF, IL-6, IL-8, GRO, MIP-1α, MIP-1β and MMP-9”; the “expression of the anti-inflammatory cytokine IL-10” value is recorded as “increasing expression of the anti-inflammatory cytokine IL-10”. Further, in [2], the multiple pro-inflammatory cytokines result was “suppressed multiple pro-inflammatory cytokines such as IL-1β, TNF-α, IL-6 IL-8, IL-12, MCP-1 and MIP-1α”; the pro-inflammatory cytokines result was “selectively inhibited pro-inflammatory cytokine, such as VEGF, IL-6, IL-8, GRO, MIP-1α, MIP-1β and MMP-9”. In [3], the “apoptosis by activation of caspase 3” value is listed as “selectively induces apoptosis” and the “apoptosis by caspase 3 activation” value is given as “induced apoptosis”. Besides, in the series on SARS-CoV-2 (Severe acute respiratory syndrome coronavirus 2, Vero C1008, Table II, antiviral compounds, VERO-E6 cells enriched for ACE-2 plus SARS-CoV-2, read-out: IC50), the concentration for half-maximal inhibition (IC50) is 0.51 µM. Moreover, in the series with SARS-CoV-2 (Severe acute respiratory syndrome coronavirus 2, Vero C1008, read-out: IC50 in an in vitro inhibition assay against SARS-CoV-2), the concentration for half-maximal inhibition (IC50) turned out to be 0.51 µM. Moreover, in the series with Influenza B, the “activity against Influenza B” value is “active”. The “activity against SARS-CoV” value in the series with SARS-CoV is “active”.
Regarding `CCN(CCO)CCCC(C)Nc1ccnc2cc(Cl)ccc12` (stereo not drawn) [Hydroxychloroquine, hydroxychloroquine, reference compound], the cytotoxic concentration (CC50) in [1] is > 30 µM.
For `CCC(CC)COC(=O)[C@H](C)N[P@](=O)(OC[C@H]1O[C@@](C#N)(c2ccc3c(N)ncnn23)[C@H](O)[C@@H]1O)Oc1ccccc1` [Remdesivir, remdesivir, reference compound], the cytotoxic concentration (CC50) in [1] was > 30 µM.
